Where a name gives a salt, the structure may show the parent alone.

For `O=C(N[C@H](Cc1ccccc1)C(=O)O)OCc1ccc2oc(-c3cc(F)cc(F)c3)nc2c1` [Compound 162, (R)-2-[2-(3,5-difluoro-phenyl)-benzoxazol-5-ylmethoxycarbonylamino]-3-phenyl-propionic acid], the melting point lay in the range of 193.8 to 195 °C. Compound `O=C(N[C@H](Cc1ccccc1)C(=O)O)OCc1cc2cc(-c3cccc4c3OCO4)ccc2o1` [Compound 102, (R)-2-(5-benzo[1,3]dioxol-4-yl-benzofuran-2-ylmethoxycarbonylamino)-3-phenyl-propionic acid] displayed a melting point of 191 to 192 °C.

In the case of `O=C(N[C@H](Cc1ccc(F)cc1)C(=O)O)OCc1cc2cc(-c3cc(F)cc(F)c3)ccc2o1` [Compound 123, (R)-2-[5-(3,5-difluoro-phenyl)-benzofuran-2-ylmethoxycarbonylamino]-3-(4-fluoro-phenyl)-propionic acid], the melting point fell in the range of 174 to 175 °C.

Regarding `O=C(N[C@H](Cc1ccc(Cl)cc1)C(=O)O)OCc1cc2cc(-c3ccc(F)cc3)ccc2o1` [Compound 118, (R)-3-(4-chloro-phenyl)-2-[5-(4-fluoro-phenyl)-benzofuran-2-ylmethoxycarbonylamino]-propionic acid], the melting point was 130 to 154.5 °C. For `O=C(N[C@H](Cc1ccccc1)C(=O)O)OCc1cc2cc(-c3ccc4[nH]ccc4c3)ccc2o1` [Compound 138, (R)-2-[5-(1H-indol-5-yl)-benzofuran-2-ylmethoxycarbonylamino]-3-phenyl-propionic acid], the melting point was in the range of 90 to 95 °C. Under `O=C(N[C@H](Cc1ccccc1)C(=O)O)OCc1cc2cc(-c3ccc(F)cc3)ccc2o1` (hydrate or solvate) [Compound 91, (R)-2-[5-(4-fluoro-phenyl)-benzofuran-2-ylmethoxycarbonylamino]-3-phenyl-propionic acid] stands 129.5 to 131.5 °C; under `O=C(O)CC(Cc1ccccc1)NC(=O)OCc1cc2cc(-c3ccccc3)ccc2o1` (centres unmarked) [Compound 110, 4-phenyl-3-(5-phenyl-benzofuran-2-ylmethoxycarbonylamino)-butyric acid], 168 to 169.8 °C; under `O=C(NC(Cc1ccccc1)C(=O)O)OCc1ccc(COc2ccc(Cl)cc2)cc1` (centres unmarked) [Compound 155, 2-[4-(4-chloro-phenoxymethyl)-benzyloxycarbonylamino]-3-phenyl-propionic acid], 122 to 123.1 °C. In the case of `O=C(N[C@H](Cc1ccc(Br)cc1)C(=O)O)OCc1cc2cc(-c3ccc(F)cc3)ccc2o1` [Compound 119, (R)-3-(4-bromo-phenyl)-2-[5-(4-fluoro-phenyl)-benzofuran-2-ylmethoxycarbonylamino]-propionic acid], the melting point lay in the range of 150.6 to 160 °C. Regarding `O=C(NC(Cc1ccccc1)C(=O)O)OCc1ccc(CCOc2ccccc2)cc1` (centres unmarked) [Compound 73, 2-[4-(2-Phenoxy-ethyl)-benzyloxycarbonylamino]-3-phenyl-propionic acid], the melting point was in the range of 150.2 to 152.4 °C.

The compound `O=C(NC(Cc1ccccc1)C(=O)O)OCc1ccc(COc2cccc(F)c2)cc1` (centres unmarked) [Compound 76, 2-[4-(3-fluoro-phenoxymethyl)-benzyloxycarbonylamino]-3-phenyl-propionic acid] displayed a melting point of 107.9 to 110 °C.

With `O=C(N[C@H](Cc1ccc(Br)cc1)C(=O)O)OCc1cc2cc(-c3ccccc3)ccc2o1` [Compound 107, (R)-3-(4-bromo-phenyl)-2-(5-phenyl-benzofuran-2-ylmethoxycarbonylamino)-propionic acid], the melting point lay in the range of 136 to 140 °C. Under `COc1ccc(NCC(NC(=O)OCc2ccc(-c3ccccc3)cc2)C(=O)O)cc1` (centres unmarked) [Compound 180, 2-(biphenyl-4-ylmethoxycarbonylamino)-3-(4-methoxy-phenylamino)-propionic acid] stands 152.6 to 154.8 °C; under `O=C(N[C@H](Cc1ccccc1)C(=O)O)OCc1ccc(COc2cccc(NS(=O)(=O)c3ccccc3)c2)cc1` [Compound 78, (R)-2-[4-(3-benzenesulfonylamino-phenoxymethyl)-benzyloxycarbonylamino]-3-phenyl-propionic acid], 96.6 to 98.6 °C. Regarding `O=C(N[C@H](Cc1ccc(F)cc1)C(=O)O)OCc1cc2cc(-c3cccnc3)ccc2o1` (hydrate or solvate) [Compound 125, (R)-3-(4-fluoro-phenyl)-2-(5-pyridin-3-yl-benzofuran-2-ylmethoxycarbonylamino)-propionic acid], the melting point fell in the range of 176.9 to 178.4 °C.

On to `O=C(N[C@H](Cc1cccc(F)c1)C(=O)O)OCc1cc2cc(-c3ccccc3)ccc2o1` [Compound 108, (R)-3-(3-fluoro-phenyl)-2-(5-phenyl-benzofuran-2-ylmethoxycarbonylamino)-propionic acid], for which the melting point was in the range of 141.4 to 142.3 °C. Under `O=C(N[C@H](Cc1ccccc1)C(=O)O)OCc1ccc2nc(-c3ccccc3)ccc2c1` [Compound 131, (R)-3-phenyl-2-(2-phenyl-quinolin-6-ylmethoxycarbonylamino)-propionic acid] stands 190 to 191 °C; under `O=C(NC(Cc1ccccc1)C(=O)O)OCc1ccc(OCCc2ccccc2)cc1` (centres unmarked) [Compound 86, 2-(4-phenethyloxy-benzyloxycarbonylamino)-3-phenyl-propionic acid], 96.9 to 97.4 °C; under `O=C(NC(Cc1ccccc1)C(=O)O)OCc1ccc(C#Cc2ccccc2)cc1` (centres unmarked) [Compound 182, 3-phenyl-2-(4-phenylethynyl-benzyloxycarbonylamino)-propionic acid], 172.1 to 173.4 °C. Under `O=C(NC(Cc1ccccc1)C(=O)O)OCc1ccc(CSc2ccccc2)cc1` (centres unmarked) [Compound 183, 3-phenyl-2-(4-phenylsulfanylmethyl-benzyloxycarbonylamino)-propionic acid] stands 113.3 to 114.1 °C; under `CC(=O)Nc1cccc(OCc2ccc(COC(=O)N[C@H](Cc3ccccc3)C(=O)O)cc2)c1` [Compound 79, (R)-2-[4-(3-acetylamino-phenoxymethyl)-benzyloxycarbonylamino]-3-phenyl-propionic acid], 190.3 to 193.5 °C. Consider `COc1ccc(-c2ccc3oc(COC(=O)N[C@H](Cc4ccccc4)C(=O)O)cc3c2)cc1` (hydrate or solvate) [Compound 92, (R)-2-[5-(4-methoxy-phenyl)-benzofuran-2-ylmethoxycarbonylamino]-3-phenyl-propionic acid], for which the melting point lay within 132 to 156.1 °C.

Compound `O=C(NC(CNc1ccccc1)C(=O)O)OCc1ccc(-c2ccccc2)cc1` (centres unmarked) [Compound 179, 2-(biphenyl-4-ylmethoxycarbonylamino)-3-phenylamino-propionic acid] had a melting point of 143 to 146 °C.

The compound `O=C(N[C@H](Cc1ccc(F)cc1)C(=O)O)OCc1cc2cc(-c3ccccc3Cl)ccc2o1` [Compound 115, (R)-2-[5-(2-chloro-phenyl)-benzofuran-2-ylmethoxycarbonylamino]-3-(4-fluoro-phenyl)-propionic acid] showed a melting point of 86.7 to 100.1 °C. For the compound `O=C(NC(Cc1cccc(NS(=O)(=O)c2ccccc2)c1)C(=O)O)OCc1ccc(COc2ccccc2)cc1` (centres unmarked) [Compound 83, 3-(3-benzenesulfonylamino-phenyl)-2-(4-phenoxymethyl-benzyloxycarbonylamino)-propionic acid], the melting point fell in the range of 129.7 to 130.3 °C. The compound `Cn1c(-c2ccccc2)nc2cc(COC(=O)N[C@H](Cc3ccccc3)C(=O)O)ccc21` [Compound 130, (R)-2-(1-Methyl-2-phenyl-1H-benzoimidazol-5-ylmethoxycarbonylamino)-3-phenyl-propionic acid] came in with a melting point of 176 to 177 °C. Compound `O=C(N[C@H](Cc1ccccc1)C(=O)O)OCc1cc2cc(-c3cccc(F)c3F)ccc2o1` [Compound 100, (R)-2-[5-(2,3-difluoro-phenyl)-benzofuran-2-ylmethoxycarbonylamino]-3-phenyl-propionic acid] yielded a melting point of 159 to 160 °C. In turn, `O=C(O)C(Cc1ccccc1)NC(=O)C(O)c1ccc(OCc2cccc3[nH]ccc23)cc1` (centres unmarked) [Compound 88, 2-{2-hydroxy-2-[4-(1H-indol-4-ylmethoxy)-phenyl]-ethanoylamino}-3-phenyl-propionic acid] came in with a melting point of 178 to 181 °C. In turn, `O=C(N[C@H](Cc1ccccc1)C(=O)O)OCc1cc2cc(-c3ccc4c(c3)OCO4)ccc2o1` (hydrate or solvate) [Compound 97, (R)-2-(5-benzo[1,3]dioxol-5-yl-benzofuran-2-ylmethoxycarbonylamino)-3-phenyl-propionic acid] displayed a melting point of 125 to 131 °C. Under `O=C(NC(Cc1cccnn1)C(=O)O)OCc1cc2cc(-c3ccccc3)ccc2o1` (centres unmarked) [Compound 167, 2-(5-phenyl-benzofuran-2-ylmethoxycarbonylamino)-3-pyridazin-3-yl-propionic acid] stands 174.7 to 175 °C; under `O=C(NC(Cc1cccnc1)C(=O)O)OCc1cc2cc(-c3ccccc3)ccc2o1` (centres unmarked) [Compound 164, 2-(5-Phenyl-benzofuran-2-ylmethoxycarbonylamino)-3-pyridin-3-yl-propionic acid], 164 to 169 °C.

For the compound `O=C(N[C@H](Cc1ccc(Cl)cc1)C(=O)O)OCc1cc2cc(-c3ccccc3)ccc2o1` [Compound 106, (R)-3-(4-chloro-phenyl)-2-(5-phenyl-benzofuran-2-ylmethoxycarbonylamino)-propionic acid], the melting point is 151 to 157 °C. Next, `O=C(N[C@H](Cc1ccccc1)C(=O)O)OCc1ccc(OCCOc2ccccc2)cc1` [Compound 89, (R)-2-[4-(2-phenoxy-ethoxy)-benzyloxycarbonylamino]-3-phenyl-propionic acid]: 130 to 131.3 °C. Compound `O=C(N[C@H](Cc1cccc(F)c1)C(=O)O)OCc1cc2cc(-c3ccc(F)cc3)ccc2o1` [Compound 120, (R)-3-(3-fluoro-phenyl)-2-[5-(4-fluoro-phenyl)-benzofuran-2-ylmethoxycarbonylamino]-propionic acid] had a melting point of 81.7 to 82.9 °C. Turning to `O=C(N[C@H](Cc1ccccc1)C(=O)O)OCc1cc2cc(-c3cccc4[nH]ccc34)ccc2o1` (as salt: salt) [Compound 137, (R)-2-[5-(1H-indol-4-yl)-benzofuran-2-ylmethoxycarbonylamino]-3-phenyl-propionic acid], the melting point fell in the range of 100 to 106 °C.

Broadly, the melting point is the temperature, or range, at which the solid turns liquid.

For the origin of these results see patent publication US7056903B2, “Carboxylic acid derivatives as IP antagonists” (Syntex (U.S.A.) LLC, priority 2000, dated 2006).
